Each structure is given as a SMILES string.

One data set has as its target T1, human COX-2 (Homo sapiens, UniProt P35354).
T1 construct: made in house; host or cells: Sf-21 insect cells, recombinant baculovirus BAC-COX2 (pFASTBAC1), microsome fraction
T1 sequence (P35354 18-604): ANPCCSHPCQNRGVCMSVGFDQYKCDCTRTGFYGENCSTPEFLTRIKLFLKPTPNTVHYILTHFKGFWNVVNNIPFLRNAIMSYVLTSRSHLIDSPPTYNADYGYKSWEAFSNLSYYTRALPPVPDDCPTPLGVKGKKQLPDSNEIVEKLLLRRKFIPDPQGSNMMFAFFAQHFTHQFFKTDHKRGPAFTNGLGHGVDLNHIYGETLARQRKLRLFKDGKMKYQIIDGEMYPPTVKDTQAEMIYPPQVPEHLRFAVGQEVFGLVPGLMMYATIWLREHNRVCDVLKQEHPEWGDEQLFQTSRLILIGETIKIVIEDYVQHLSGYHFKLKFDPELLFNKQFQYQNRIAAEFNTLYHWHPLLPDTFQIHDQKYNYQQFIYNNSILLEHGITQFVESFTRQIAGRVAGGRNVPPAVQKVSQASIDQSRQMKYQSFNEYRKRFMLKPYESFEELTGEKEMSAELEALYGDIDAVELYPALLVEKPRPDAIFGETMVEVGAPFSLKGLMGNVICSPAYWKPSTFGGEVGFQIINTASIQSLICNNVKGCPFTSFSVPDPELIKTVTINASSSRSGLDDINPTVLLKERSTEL
The data set is described as follows: COX-2 inhibiting activity (chemiluminescence, microsome fractions). The class given is biochemical. The conditions noted are these: microsome fractions from COX-2 expressing Sf-21 cells, 37° C. 25 min preincubation, arachidonic acid. The procedure: A 1.8 kb DNA fragment containing human COX-2 cDNA (Proc. Natl. Acad. Sci. U.S.A., 89 (16), 7384-7388-(1992)) prepared by the PCR method was inserted into plasmid pFASTBAC1 (CIBCOBRAL) to obtain a plasmid pFBCOX2.
Using the plasmid pFBCOX2 and BAC-TO-BAC Baculovirus Expression System (GIBCOBRAL), a virus stock BAC-COX2 of the recombinant baculovirus was prepared.
Sf-21 cells were inoculated in 125 mL of LSf-900 II SFM medium (GIBCOBRAL) at a concentration of 1×10^6 cells/mL, and the medium was incubated at 27° C. for 24 hrs. 0.75 mL of the virus stock BAC-COX2 of the recombinant baculovirus was added, and was incubated for additional 72 hrs. The cells were separated from the medium by centrifugation (3000 rpm, 10 min.), and washed twice with PBS. The cells were suspended in 10 mL of a Lysis buffer (0.1 M Tris-HCl (pH 7.4), 5 mM EDTA), and were treated with a homogenizer (POLYTRON), three times at 20000 rpm for 20 sec. so that the cells were crushed. The supernatant thus obtained after centrifugation (2000 rpm, 10 min.) was further centrifuged (40000 rpm, 45 min.) to obtain a precipitate, which was resuspended in a Lysis buffer (0.1 M Tris-HCl (pH 7.4), 5 mM EDTA), and the suspension was stored at −80° C.
(§1) To a mixture of […] of a reaction buffer previously concentrated 10 times (1 M Tris-HCl (pH 8.0), 50 mM EDTA, 1.0% Tween 20, 50 mM luminol, 100 mM hematin), 20 mL of the microsome fractions (COX-1: 40 mg, COX-2: 20 mg), and […] of distilled water, a sample compound dissolved in DMF (5 mL) was added, and the mixture was left at 37° C. for 25 min. The reaction was started by the addition of 20 mM arachidonic acid ([…]), and chemiluminescence amount during the 10-second period after the addition of arachidonic acid was determined by the use of Lumistar (BMG Lab technologies, GmbH). The inhibition rate was calculated, regarding that the enzyme activity when DMF ([…]) was added was 100%, and the enzyme activity was 0% when 4 mM flurbiprofen (5 mL) was added.

The next data set has as its target T2, human COX-1 (Homo sapiens, UniProt P23219).
T2 construct: made in house; host or cells: Sf-21 insect cells, recombinant baculovirus BAC-COX1 (pFASTBAC1), microsome fraction
Kind of data set: COX-1 inhibiting activity (chemiluminescence, microsome fractions). The class given is biochemical. The conditions noted are these: microsome fractions from COX-1 expressing Sf-21 cells, 37° C. 25 min preincubation, arachidonic acid. Here is the method: A 1.8 kb DNA fragment containing human COX-1 cDNA (FASEB J., 5 (9), 2304-2312 (1991)) prepared by the PCR method was inserted into plasmid pFASTBAC1 (CIBCOBRL) to obtain a plasmid pFBCOX1.
Using the plasmid pFBCOX1 and BAC-TO-BAC Baculovirus Expression System (GIBCOBRL), a virus stock BAC-COX1 of the recombinant baculovirus was prepared.
Sf-21 cells were inoculated in 125 mL of Sf-900 II SFM medium (GIBCOBRL) at a concentration of 1×10^6 cells/mL, and the medium was incubated at 27° C. for 24 hrs. 0.75 mL of the virus stock BAC-COX1 of the recombinant baculovirus was added, and the mixture was incubated for additional 72 hrs. The cells were separated from the medium by centrifugation (3000 rpm, 10 min.), and washed with PBS twice. The cells were suspended in 10 mL of a lysis buffer (0.1 M Tris-HCl (pH 7.4), 5 mM EDTA), and were treated with a homogenizer (POLYTRON) three times at 20000 rpm for 20 seconds so that the cells were crushed. The supernatant obtained after centrifugation (2000 rpm, 10 min.) was further centrifuged (40000 rpm, 45 min.) to give a precipitate, which was resuspended in a Lysis buffer (0.1 M Tris-HCl (pH 7.4), 5 mM EDTA), and the suspension was stored at −80° C.
as §1

The test system of data set [1] is Male SD rats. Kind of data set: Carrageenin edema test. The class given is in vivo. To be noted: oral, 1 hr before 1% carrageenin in footpad, foot volume after 2 hr and 3 hr. The procedure: Male SD rats (6-week-old, CLEA Japan) were used (6 rats per group). The carrageenin edema test was performed in accordance with the method of Winter et al. (Proc. Soc. Exp. Biol. Med., 111, 544-547, 1962). The volume of the footpad of the right hind limb was measured. Then, the test compound was orally administered (1.0 mL/100 g body weight), and immediately thereafter, water was orally administered to 5 mL/rat. Vehicle alone was orally administered to control group. After 1 hr., 0.05 mL of saline containing 1% carrageenin was subcutaneously injected into the footpad of the right hind limb to induce edema. After 2 hr. and 3 hr., the volume of the footpad of the right hind limb was measured. For the effects of the compound, the difference in the volume of the foot before and 2 hr. and 3 hr. after the carrageenin injection was determined, from which inhibitory rate (%) relative to the control group was calculated, and ID30 was determined.
On the technique in general: The carrageenan paw model is a standard test of acute inflammation.

For a further data set, the system named is Male ICR-mice. Kind of data set: Acetic acid rising method (analgesic activity). The conditions noted are these: oral, 30 min before 0.6% acetic acid i.p., rising and stretching counted for 20 min. The class given is in vivo. The procedure:
Male ICR-mice (5 weeks old, CLEA Japan) were used (1 group, 10 mice), and a sample was orally administered (0.2 mL/10 g, b.w.). After 30 min., 0.6% acetic acid solution was injected to mice intraperitoneally (0.1 mL/10 g, b.w.), and the mice were immediately transferred into an observation cage made of a transparent acrylic resin. The number of mice rising and stretching during the following period of 20 min. was counted. The repression rate (%) was calculated by comparing the average numbers between the sample groups and the control groups and ID50 value was calculated.

Data set [2] has as its system Male SD rats. The data set is described as follows: Test for gastric mucosa disorder. The class given is in vivo. To be noted: oral 300 mg/kg, stomach examined after 24 hr. Here is the method:
Male SD rats (6 rats, 7 weeks old, CLEA Japan) were used. The test compound was orally administered (5 mL/kg, b.w.) to the rats after 24 hr-fasting or without fasting. After 23.5 hrs., the rats were intravenously injected with Evan's Blue (0.5% Evan's Blue/saline, 1 mL/rat) without anesthesia. After 30 min., the rats were laparotomized and stomach was excised. Esophagus was clipped. A 1% formalin solution (8 mL) was infused to the esophagus, and duodenum was clipped. The stomach was immersed in a 1% formalin solution for 10 min. or more, and sectioned along the line from duodenum to greater curvature of the stomach. After washing the stomach, the total length (mm^2) of the site (hemorrhage site: detachment of mucosa-ulcer) stained with Evan's Blue was measured with a counter under a stereomicroscope and recorded.

Another data set deals with HSP27 gene expression. Kind of data set: HSP27-inducing activity in gastric mucosa (TaqMan PCR). The class given is in vivo. The conditions noted are these: rats, oral 30 mg/ml, gastric mucosa 2 hr after administration. Here is the method:
Compound A (30 mg/ml) and vehicle were orally administered to rats. After 2 hr., stomach was excised from the rats, opened and washed with ice-cooled physiological saline. Gastric mucosa was taken from the stomach using sterilized cover glass, and immediately suspended in ISOGEN (Wako Pure Chemical Industries, Ltd.). Total RNA was prepared from the gastric mucosa according to instructions, and purified by RNAeasy Midi Kit (QIAGEN). Then cDNA was synthesized from the total RNA using TaqMan Gold RT-PCR Kit (Applied Biosystems), and subjected to TaqMan PCR using ABI7700 (Applied Biosystems), based on which the amount of HSP 27 gene expression was determined. Forward primer used was 5′-[…]-3′ (SEQ ID NO:1), Reverse primer used was 5′-[…]-3′ (SEQ ID NO:2), and TaqMan probe used was 5′-[…]-3′ (SEQ ID NO:3) labeled with FAM (6-carboxyfluorescein). Additionally, the amount of GAPDH gene expression was determined using TaqMan Rodent GAPDH Control Reagents VIC probe (Applied Biosystems) and G3PDH cDNA Control probe (CLONTECH), and the amount was employed as an internal control. The amount of HSP27 gene expression is shown by the values calibrated with an amount of internal control (i.e., GAPDH gene) expression (Table 4).
On the technique in general: Real-time PCR tracks product formation cycle by cycle.

T2 sequence (P23219 24-599): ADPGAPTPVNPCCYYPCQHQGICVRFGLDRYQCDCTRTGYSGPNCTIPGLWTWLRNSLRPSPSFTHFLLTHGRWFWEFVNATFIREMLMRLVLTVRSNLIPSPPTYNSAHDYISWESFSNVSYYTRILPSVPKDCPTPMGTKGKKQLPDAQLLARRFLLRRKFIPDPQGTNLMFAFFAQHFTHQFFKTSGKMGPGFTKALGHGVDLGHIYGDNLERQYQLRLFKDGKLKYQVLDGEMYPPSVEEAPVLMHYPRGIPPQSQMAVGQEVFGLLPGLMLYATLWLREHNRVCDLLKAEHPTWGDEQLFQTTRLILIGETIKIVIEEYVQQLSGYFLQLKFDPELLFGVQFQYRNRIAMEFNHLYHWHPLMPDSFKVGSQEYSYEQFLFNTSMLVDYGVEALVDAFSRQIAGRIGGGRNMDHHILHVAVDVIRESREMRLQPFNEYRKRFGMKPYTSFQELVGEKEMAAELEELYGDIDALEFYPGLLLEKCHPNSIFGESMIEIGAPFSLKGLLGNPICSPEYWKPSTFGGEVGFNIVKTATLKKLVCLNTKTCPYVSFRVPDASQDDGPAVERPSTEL

Consider `Cc1nn(-c2ccccn2)c2[nH]c3cc(F)c(Cl)cc3c(=O)c12` [Compound C, 6-Chloro-7-fluoro-3-methyl-1-(2-pyridinyl)-1,9-dihydro-4H-pyrazolo[3,4-b]quinolin-4-one], for which the results for the IC50 on human COX-2 and against human COX-1 were 213 nM and 263 nM, respectively.

For the compound `O=c1c2cc(Cl)ccc2[nH]c2c1cnn2-c1ccccn1` [Compound D, 6-Chloro-1-(2-pyridinyl)-1,9-dihydro-4H-pyrazolo[3,4-b]quinolin-4-one], the half-inhibitory concentration (IC50) (in general, the midpoint of a concentration-inhibition curve) turned out to be 360 nM against human COX-2 and 600 nM against human COX-1.

For the compound `Cc1nn(-c2ccccn2)c2[nH]c3cc(F)c(F)cc3c(=O)c12` [Compound B, 6,7-Difluoro-3-methyl-1-(2-pyridinyl)-1,9-dihydro-4H-pyrazolo[3,4-b]quinolin-4-one], the IC50 is 295 nM on human COX-2 and 527 nM on human COX-1.

Consider `Cc1nn(-c2ccccn2)c2[nH]c3ccc(C(F)(F)F)cc3c(=O)c12` [Compound A, 3-Methyl-1-(2-pyridinyl)-6-(trifluoromethyl)-1,9-dihydro-4H-pyrazolo[3,4-b]quinolin-4-one], for which the ID30 with Male SD rats [1] came to 2.2 mg/kg. The ID50 in the data set with Male ICR-mice was found to be 0.9 mg/kg. For the same compound, the IC50 on human COX-2 stood at 380 nM; at human COX-1 it was 450 nM. Besides, the “Area of lesion (mm^2) (average), Administration after 24 hr-fasting” value in the data set on Male SD rats [2] (after 24 hr-fasting) is given as 0.2 mm^2. The “Area of lesion (mm^2) (average), Administration without fasting” value in the data set with Male SD rats [2] (without fasting) worked out at 0 mm^2. For the same compound, in the data set on HSP27 gene expression (calibrated with GAPDH expression), the “HSP27/GAPDH (x10^4)” value came to 197 ± 20. Also, the “HSP27/GAPDH (% of control)” value in the data set on HSP27 gene expression (relative to vehicle) is “(277) % of control”.

For the origin of these results see patent US20040097539A1, “Hsp inductor” (priority 2001, published 2004).
